The values that follow come from US20250115609A1, “AROMATIC HETEROCYCLIC COMPOUNDS, PREPARATION METHOD THEREFOR AND USES THEREOF” (Innovstone Therapeutics Limited, priority 2021, published 2025).

SMILES strings stand for the structures.

One data set addresses hENPP1 enzyme (Homo sapiens (Human), UniProt P22413). The data set can be described thus: ENPP1 enzymatic inhibition in biochemical assay (TMP-pNP hydrolysis, OD405). To be noted: ENPP1 enzymatic inhibition activity, TMP-pNP substrate, pH 9.5. The text has this:
ENPP1 was a transmembrane glycoprotein capable of hydrolyzing nucleotides and derivatives with a nucleotide-5′-monophosphate structure. ENPP1 was capable of hydrolyzing artificial thymidine 5′-monophosphate p-nitrophenyl ester (TMP-pNP) into nucleotide 5′-monophosphate and p-nitrophenol which was a chromogenic product. The formation amount of p-nitrophenol product could be directly measured by its absorbance at 405 nm, which was directly proportional to the enzyme activity.
The compound was dissolved in DMSO, with stock concentration of 1 mM, and diluted in a 4-fold serial gradient to make 10 concentration points. Echo was used to transfer 300 nL of gradient concentrations of compound to a 384-well assay plate (final concentration: starting at 10 μM, 4-fold serial gradient dilution, 10 concentration points). First, 15 μL of 0.2 ng/uL hENPP1 enzyme (2× final concentration) prepared in assay buffer (250 mM NaCl, 50 mM Tris, pH=9.5) was added to each well. Then, 15 μL of 400 μM TMP-pNP (2× final concentration) diluted in assay buffer was added. After incubating at 37° C. for 0.5 hrs, the OD405 nm value was read by the microplate reader. The percentage inhibition was calculated using the formula: % Inhibition Rate=(ODhigh signal control−ODsample well)/(ODhigh signal control−ODlow signal control)*100. The IC50 value was calculated using four-parameter fit. The high signal control was the DMSO group without inhibitors, and the low signal control was the blank control group.

The target in data set [1] is ENPP1 in cultured MDA-MB-231 cells (Homo sapiens (Human), UniProt P22413). The data set can be described thus: ENPP1 enzymatic inhibition in cellular assay (MDA-MB-231 cells, TMP-pNP). Type of data set: cell-based. Particulars: ENPP1 enzymatic inhibition activity at the cellular level. The protocol:
ENPP1 was mainly expressed on the surface of cell membranes and could hydrolyze 2′3′-cGAMP into 5′-GMP and 5′-AMP. Similarly, ENPP1 could also hydrolyze the synthetic phosphate TMP-pNP, generating nucleotide-5′-monophosphate and the chromogenic product p-nitrophenol. Therefore, TMP-pNP was used as a substrate to reflect the enzyme activity of ENPP1 in cultured MDA-MB-231 cells. The amount of p-nitrophenol formed in the culture medium was determined by absorbance at 405 nim, which was directly proportional to the activity of ENPP1.
MDA-MB-231 cells was seeded with a density of 6000 per well in 384-well plate and cultured overnight (about 18 hrs) at 37° C. The compound was diluted into a 50× serial gradient dilution using an assay buffer (250 mM NaCl, 50 mM Tris, pH=9.5), starting at 500 μM, and diluted in a 4-fold serial gradient to make 10 concentration points. The cell culture medium was removed, and 10 μL of gradient concentrations of compounds were added to each well of the 384-well assay plate (final concentration: starting at 10 μM, 4-fold serial gradient dilution, with 10 concentration points). Then, 10 μL of 1 mM TMP-pNP (2× final concentration) dissolved in the assay buffer was added to the well. After incubating at 37° C. for 3 hrs, the OD405 nm value was read by the microplate reader. The percentage inhibition was calculated using the formula: % Inhibition Rate=(ODhigh signal control−ODsample well)/(ODhigh signal control−ODlow signal control)*100. The IC50 value was calculated using four-parameter fit. The high signal control was the DMSO group without inhibitors, and the low signal control was the blank control group.

A short description of data set [2]: Pharmacokinetics in mice, compound concentration by LC-MS/MS. Type of data set: in vivo, CD-1 male mice. To be noted: male, CD-1, mouse, plasma, 10 mg/kg, PO, 10 mpk vs IV, 2 mpk.

Chain of hENPP1 enzyme (P22413 whole entry): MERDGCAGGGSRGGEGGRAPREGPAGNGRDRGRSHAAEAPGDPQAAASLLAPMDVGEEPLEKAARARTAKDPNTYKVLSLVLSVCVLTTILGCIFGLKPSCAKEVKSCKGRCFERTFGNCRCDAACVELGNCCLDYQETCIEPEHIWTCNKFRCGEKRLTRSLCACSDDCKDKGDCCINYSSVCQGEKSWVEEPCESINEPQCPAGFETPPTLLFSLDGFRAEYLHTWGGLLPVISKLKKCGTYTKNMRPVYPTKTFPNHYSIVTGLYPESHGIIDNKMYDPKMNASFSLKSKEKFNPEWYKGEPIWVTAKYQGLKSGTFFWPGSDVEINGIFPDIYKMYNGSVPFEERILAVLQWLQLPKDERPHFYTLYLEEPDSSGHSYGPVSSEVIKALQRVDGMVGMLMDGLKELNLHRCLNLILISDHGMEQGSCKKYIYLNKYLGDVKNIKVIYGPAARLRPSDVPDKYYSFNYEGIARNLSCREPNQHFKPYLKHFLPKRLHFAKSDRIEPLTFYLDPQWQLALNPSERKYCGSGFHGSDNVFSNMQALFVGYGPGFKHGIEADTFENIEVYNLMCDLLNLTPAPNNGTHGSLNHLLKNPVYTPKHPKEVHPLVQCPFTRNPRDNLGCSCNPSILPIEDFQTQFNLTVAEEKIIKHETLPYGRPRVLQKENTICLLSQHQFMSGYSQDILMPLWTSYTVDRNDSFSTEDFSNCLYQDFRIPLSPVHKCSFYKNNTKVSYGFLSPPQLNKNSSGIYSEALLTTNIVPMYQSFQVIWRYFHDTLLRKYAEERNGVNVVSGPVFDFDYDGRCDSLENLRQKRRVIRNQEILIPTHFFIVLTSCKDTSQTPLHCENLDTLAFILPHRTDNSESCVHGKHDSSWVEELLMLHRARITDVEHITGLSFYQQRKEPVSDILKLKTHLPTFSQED
Chain of ENPP1 in cultured MDA-MB-231 cells (P22413 whole entry): as above

Consider `COc1ccc2c3c(cnc2n1)COC(=O)N3Cc1c(F)cc(S(N)(=O)=O)cc1F` [Compound 006, 3,5-difluoro-4-((8-methoxy-2-oxo-2H-[1,3]oxazino[5,4-c][1,8]naphthyridin-1(4H)-yl)methyl)benzenesulfonamide], for which, on hENPP1 enzyme, the IC50 (as a rule, the concentration needed to halve the response being measured) fell in the range of 0.1 to 0.2 nM. Also, in data set [1], the concentration for a half-maximal effect (EC50) (commonly the concentration giving half of the maximal effect) was under 0.5 nM. Also, in data set [2], the bioavailability (usually the share of a dose that reaches the circulation, judged against a reference dose that is usually intravenous) was 92.6%.
